In ChEMBL document CHEMBL4665850, “Effect of methoxyflavones contained in Kaempferia parviflora on CRE-mediated transcription in PC12D cells” (Bioorg Med Chem Lett, 2020):
Active and inactive are the calls of the source. The calls are words filed in the database; no cut-off is given here.

What was measured:
PC12D = assay: Activation of CRE-mediated transcription in rat PC12D cells transfected with pCRE-firefly luciferase and pRL-null-renilla luciferase assessed as increase in CRE-driven firefly luciferase activity at 30 uM by dual luciferase reporter gene assay; assay type: functional, cell-based
[1] = Effect on transcription in rat PC12D cells transfected with pCRE-firefly luciferase and pRL-null-renilla luciferase assessed as renilla luciferase activity at 30 uM by dual luciferase reporter gene assay; assay type: ADME, cell-based
[2] = Cytotoxicity against rat PC12D cells assessed as reduction in cell viability at 30 uM by MTT assay; assay type: cell-based

Compound | Activity (PC12D) | Activity [1] | Activity [2]
COc1cc(O)c2c(=O)c(OC)c(-c3ccccc3)oc2c1 | inactive | Non-Toxic | Non-Toxic
COc1cc(OC)c2c(=O)c(OC)c(-c3ccc(OC)c(OC)c3)oc2c1 | Active | Non-Toxic | Non-Toxic
COc1ccc(-c2oc3cc(OC)cc(O)c3c(=O)c2OC)cc1 | inactive | Non-Toxic | Non-Toxic
COc1ccc(-c2cc(=O)c3c(O)cc(OC)cc3o2)cc1 [APIGENIN DIMETHYLETHER] | inactive | Non-Toxic | Non-Toxic
COc1cc(OC)c2c(=O)cc(-c3ccccc3)oc2c1 [CHRYSIN DIMETHYL ETHER] | Active | Toxic | Non-Toxic
COc1cc(O)c2c(=O)c(OC)c(-c3ccc(OC)c(OC)c3)oc2c1 [RETUSIN] | inactive | Non-Toxic | Non-Toxic
COc1cc(O)c2c(=O)cc(-c3ccccc3)oc2c1 [TECHTOCHRYSIN] | inactive | Non-Toxic | Non-Toxic
COc1cc(OC)c2c(=O)cc(-c3ccc(OC)c(OC)c3)oc2c1 [TETRAMETHYLLUTEOLIN] | Active | Toxic | Non-Toxic
COc1ccc(-c2cc(=O)c3c(OC)cc(OC)cc3o2)cc1 [TRIMETHYLAPIGENIN] | Active | Toxic | Non-Toxic
